Experimental data taken from PubChem BioAssay AID248 (DTP/NCI, 2004).
Several values for one entry are separate records, joined by “and”; a condition that tells them apart may be missing. Equal values may be shown once. Toxic doses and inconclusive results are not listed. Rule as the data show it: active = T/C of 150% or more; inactive = T/C below 125%.

Test system: L1210 leukemia ip in BDF1 mice, survival T/C
Assay: NCI In Vivo Anticancer Drug Screen. Data for tumor model L1210 Leukemia (intraperitoneal) in B6D2F1 (BDF1) mice
Conditions: endpoint: mean survival time, higher = longer survival
Summary of the method: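 Transplantable tumor model; survival measured in treated vs vehicle control mice. Value = treated/control.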

[1] = dose: 100.0 mg/kg/injection, schedule: Q01DX009 (ip), vehicle: other
[2] = dose: 100.0 mg/kg/injection, schedule: Q04DX003 (ip), vehicle: saline with Tween-80
[3] = dose: 200.0 mg/kg/injection, schedule: Q01DX009 (ip), vehicle: other
[4] = dose: 200.0 mg/kg/injection, schedule: Q04DX003 (ip), vehicle: saline with Tween-80
[5] = dose: 400.0 mg/kg/injection, schedule: Q01DX009 (ip), vehicle: other
[6] = dose: 400.0 mg/kg/injection, schedule: Q04DX003 (ip), vehicle: saline with Tween-80
[7] = dose: 100.0 mg/kg/injection, schedule: Q01DX009 (ip), vehicle: saline with Tween-80
[8] = dose: 200.0 mg/kg/injection, schedule: Q01DX009 (ip), vehicle: saline with Tween-80

Measured: T/C

OC1(C2CCCCC2)C2CCCC1CCC2 (centres undefined)
inactive: [1] 94 % of control | [2] 99 % of control | [3] 94 % of control | [4] 92 % of control | [5] 101 % of control | [6] 103 % of control

CCC(COC(=O)c1ccccc1)(COC(=O)c1ccccc1)[N+](=O)[O-]
inactive: dose: 100.0 mg/kg/injection, schedule: Q01DX001 (ip), vehicle: Klucel (hydroxypropylcellulose) (HPC) 105 % of control | dose: 200.0 mg/kg/injection, schedule: Q01DX001 (ip), vehicle: Klucel (hydroxypropylcellulose) (HPC) 95 % of control | dose: 400.0 mg/kg/injection, schedule: Q01DX001 (ip), vehicle: Klucel (hydroxypropylcellulose) (HPC) 108 % of control

O=CNc1ccccc1[N+](=O)[O-]
inactive: [2] 94 % of control | [4] 94 % of control

CCOC(=O)C(CC(C)C)NC(=O)c1ccc(C)c2c1Nc1c(c(C)c3oc(=O)c(C)nc3c1C(=O)NC(CC(C)C)C(=O)OCC)O2 (centres undefined)
inactive: dose: 75.0 mg/kg/injection, schedule: Q01DX001 (ip), vehicle: other 91 % of control | dose: 150.0 mg/kg/injection, schedule: Q01DX001 (ip), vehicle: other 86 % of control | dose: 300.0 mg/kg/injection, schedule: Q01DX001 (ip), vehicle: other 88 % of control

CCC(=O)/C=C/C1C(C)=CCCC1(C)C (centres undefined)
inactive: [7] 86 % of control | dose: 100.0 mg/kg/injection, schedule: Q04DX003 (ip), vehicle: saline 100 % of control | [8] 90 % of control | dose: 200.0 mg/kg/injection, schedule: Q04DX003 (ip), vehicle: saline 102 % of control | dose: 400.0 mg/kg/injection, schedule: Q04DX003 (ip), vehicle: saline 100 % of control

O=C1C(Br)=C(Br)C(=O)C1(Br)Br
inactive: [2] 87 % of control | [4] 96 % of control | [6] 94 % of control

CS(=O)(=O)OCCBr
inactive: dose: 12.5 mg/kg/injection, schedule: Q04DX003 (ip), vehicle: saline 88 % of control | dose: 25.0 mg/kg/injection, schedule: Q04DX003 (ip), vehicle: saline 90 % of control | dose: 50.0 mg/kg/injection, schedule: Q04DX003 (ip), vehicle: saline 87 % of control | dose: 100.0 mg/kg/injection, schedule: Q01DX001 (ip), vehicle: carboxymethylcellulose (CMC) 103 % of control

O=C(O)CNC(=O)/C(=C\c1[nH]c(=O)[nH]c(=O)c1Br)NC(=O)c1ccccc1
inactive: [7] 92 % of control | [2] 104 % of control | [8] 91 % of control | [4] 104 % of control | dose: 400.0 mg/kg/injection, schedule: Q01DX009 (ip), vehicle: saline with Tween-80 96 % of control | [6] 107 % of control

COc1ccc2c(c1OC)CCCCC2=O
inactive: dose: 50.0 mg/kg/injection, schedule: Q01DX009 (ip), vehicle: saline with Tween-80 102 % of control | [7] 98 % of control | [8] 91 % of control

O=C1C(Cl)=C(N2CC2)C(=O)c2ccccc21
inactive: dose: 2.5 mg/kg/injection, schedule: Q01DX009 (ip), vehicle: Klucel (hydroxypropylcellulose) (HPC) 107 % of control | dose: 5.0 mg/kg/injection, schedule: Q01DX009 (ip), vehicle: Klucel (hydroxypropylcellulose) (HPC) 93 % of control

CC(=N\NC(N)=S)/C(=N/NC(N)=S)c1ccccc1
inactive: dose: 15.0 mg/kg/injection, schedule: Q01DX Z (ip), vehicle: carboxymethylcellulose (CMC) 107 % of control | dose: 30.0 mg/kg/injection, schedule: Q01DX Z (ip), vehicle: carboxymethylcellulose (CMC) 97 % of control | dose: 60.0 mg/kg/injection, schedule: Q01DX Z (ip), vehicle: carboxymethylcellulose (CMC) 95 % of control and 90 % of control | dose: 120.0 mg/kg/injection, schedule: Q01DX Z (ip), vehicle: carboxymethylcellulose (CMC) 93 % of control and 91 % of control | dose: 120.0 mg/kg/injection, schedule: Q01DX Z (oral), vehicle: carboxymethylcellulose (CMC) 110 % of control | dose: 240.0 mg/kg/injection, schedule: Q01DX Z (oral), vehicle: carboxymethylcellulose (CMC) 100 % of control | dose: 480.0 mg/kg/injection, schedule: Q01DX Z (ip), vehicle: carboxymethylcellulose (CMC) 88 % of control | dose: 480.0 mg/kg/injection, schedule: Q01DX Z (oral), vehicle: carboxymethylcellulose (CMC) 115 % of control | dose: 960.0 mg/kg/injection, schedule: Q01DX Z (oral), vehicle: carboxymethylcellulose (CMC) 104 % of control

Cc1cc(Cl)c(Cl)cc1NC(=O)Nc1ccccc1F
inactive: [1] 89 % of control and 92 % of control | [3] 89 % of control | [5] 98 % of control and 90 % of control
